Where two headings read alike, the source gives them in different places.

In one series the target is T1, AT1a receptor (Rattus norvegicus, UniProt P25095).
T1 construct: expressed in transfected cells
T1 sequence (P25095 1-359): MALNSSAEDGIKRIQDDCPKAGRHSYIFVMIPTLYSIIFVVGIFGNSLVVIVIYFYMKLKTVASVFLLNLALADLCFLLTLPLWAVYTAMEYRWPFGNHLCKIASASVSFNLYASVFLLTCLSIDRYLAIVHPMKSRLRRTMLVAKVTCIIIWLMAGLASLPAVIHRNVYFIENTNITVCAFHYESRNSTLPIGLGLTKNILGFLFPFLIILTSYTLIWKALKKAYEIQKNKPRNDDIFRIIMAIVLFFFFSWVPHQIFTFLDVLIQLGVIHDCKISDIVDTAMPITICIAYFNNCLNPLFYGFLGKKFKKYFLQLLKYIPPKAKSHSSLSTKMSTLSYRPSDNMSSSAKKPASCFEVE
The series can be described thus: Ang peptide radioligand binding assay, displacement of [125I]-Ang-II (AT1R/HEK). The following applies: competition with [125I]-Ang-II, HEK-293 cells stably expressing AT1a receptor, 90 min on ice, log-logit analysis; average of n studies. Here is the method: (§1) HEK-293 cells stably expressing AT1a receptor were maintained and characterized as previously described. HEK-293 cells expressing AT2 receptors were transfected with pcDNA3.1 plasmid containing human AT2 receptor DNA using Lipofectamine 2000 at 1 µg DNA/well of a six-well plate according to manufacturer's protocol (Invitrogen, Carlsbad, CA). Transfected cells were maintained in Minimal Essential Medium (MEM) containing 10% fetal bovine serum and 1% antibiotic/fungizone/antimycotic with addition of geneticin (400 µg/ml) for stable transfectants. Confluent monolayers cells were deprived of serum (0.1% bovine serum albumin) for 2–24 hours before assay. […] After 90 min of incubation on ice, cells were gently washed 3 times with ice cold 0.9% sodium chloride followed by solubilization of the cell monolayer with 0.1 N NaOH/0.1% SDS. The solubilized sample was placed into a gamma counter for determination of cell-associated radioactivity. Log-logit analysis of the obtained competition curves was performed for determination of IC50 values.
Background: Displacement assays read how much labelled ligand stays bound in the presence of the test substance.

The target in a further series is T2, human AT2 receptor (Homo sapiens, UniProt P50052).
T2 construct: expressed in transfected cells
T2 sequence (P50052 1-363): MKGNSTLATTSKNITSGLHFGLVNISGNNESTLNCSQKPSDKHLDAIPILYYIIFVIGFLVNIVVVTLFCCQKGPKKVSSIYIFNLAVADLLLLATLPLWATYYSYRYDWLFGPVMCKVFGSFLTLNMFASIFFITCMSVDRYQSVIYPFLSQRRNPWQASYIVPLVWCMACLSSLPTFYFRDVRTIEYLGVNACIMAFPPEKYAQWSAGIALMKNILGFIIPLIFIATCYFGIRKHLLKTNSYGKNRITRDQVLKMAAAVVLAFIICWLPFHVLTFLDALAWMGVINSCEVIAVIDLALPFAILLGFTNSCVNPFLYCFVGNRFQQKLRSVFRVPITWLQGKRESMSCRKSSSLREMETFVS
Description: Ang peptide radioligand binding assay, displacement of [125I]-Ang-II (AT2R/HEK). The following applies: competition with [125I]-Ang-II, HEK-293 cells stably transfected with human AT2 receptor, 90 min on ice, log-logit analysis; average of n studies. As for the experimental part: as §1

In series [1] the test system is kidney homogenates of uni-nephrectomized FHH rats. The series can be described thus: Intrarenal Ang peptide content by parallel reaction monitoring (LC/MS/MS), late disease protocol. The series is classed as in vivo, rat. The note with it: late disease model. Here is the method: Stable isotope labeled peptide standards (SIS, ^13C ^15N, New England Peptide, Gardner, MA) were resuspended in water to 1 nM and stored at −80C in Lo-Bind microcentrifuge tubes (Eppendorf) with the exception of Ang-I, which was resuspended in 30% acetonitrile and stored at 0.4 nM final concentration. Ang-(1-7), Ang-II, and Ang-(2-10) contained isotopically labeled valine. Ang-I contained isotopically labeled valine and proline. Peptide concentration was determined by amino acid analysis.
Tissues were stored frozen at −80°C in 15 ml Falcon tubes. Whole kidney tissues were submerged in liquid nitrogen for 5 minutes and kidney tissue was processed in a biopulverizer (MidSci, St. Louis, MO) to a fine powder. Pulverized tissue was transferred to a 5-ml glass dounce with a chilled spatula. Approximately 200 mg of tissue was used for peptide extraction. Four volumes of ice cold methanol (Burdick and Jackson, LC-MS Grade) were added to the tissue followed by a volume of water (Burdick and Jackson, LC-MS Grade) containing O-phenanthroline (Sigma Aldrich) and SIS peptides resulting in a final concentration of 1 mM and 1.8 nM, respectively. Tissue was homogenized in the dounce on ice for 1 minute. An aliquot of tissue homogenate was transferred to a 2-ml lo-bind microcentrifuge tube and stored at −20°C for at least 1 hour. Samples were further centrifuged for 10 minutes at 10,000×g at 4°C. An aliquot equal to approximately 60% of the total sample volume was transferred to a lo-bind tube equivalent to 100 mg of tissue (wet weight). From this aliquot, a volume equal to the wet weight of the starting tissue was transferred to a new lo-bind tube and diluted with ice cold water so that the final concentration of methanol was 40%. […] The filtrate volume was estimated by variable volume pipet and recorded to determine the fraction of starting volume collected. […] Declustering potential was set at 80 V. For parallel reaction monitoring (PRM) quantification, the dominant charge state of each peptide was determined and collision energies were optimized manually for SIS peptides (Table 1). […]

The subject of series [2] is uni-nephrectomized fawn-hooded hypertensive (FHH) rats. The following applies: late disease model; for systolic blood pressure at 6 weeks of treatment / systolic blood pressure after 12 weeks of treatment: tail-cuff, mean ± SEM, SEM; for systolic blood pressure at 6 weeks of treatment / degree of glomerulosclerosis (semiquantitative score 0-4): captopril 100 mg/kg/d or losartan 20 mg/kg/d orally; for systolic blood pressure at 6 weeks of treatment: vehicle 179±2; for systolic blood pressure after 12 weeks of treatment: captopril 100 mg/kg/d, losartan 20 mg/kg/d orally, low-dose Ang-(2-10) 100 ng/kg/min iv, vehicle 185±3; for degree of glomerulosclerosis (semiquantitative score 0-4): vehicle 2.29±0.9. Here is the method:
(§2) Male FHH rats (In-house colony established from animals obtained from Charles River Laboratories, Wilmington, MA) were housed at a certified animal facility at 22°C and a 12∶12 h light/dark cycle. […] All surgeries were performed under isoflurane anesthesia (5% induction, 2% maintenance), at 37°C, and perioperative buprenorphine.
(§3) Following anesthesia, an incision was made in the left flank; the kidney was exposed and excised after ligation of the pedicle. […] Under anesthesia, a mini-pump was placed in a subcutaneous pocket. […] Pumps were replaced once during the treatment period. For the early disease model, five groups of rats were examined. […] For the late disease model, eight groups of rats were examined. […] The dosages of the Ang peptides were selected based on previous studies where Ang-(1-7) was similarly administered using implanted osmotic mini-pumps, [16], [17], [26]. […] Systemic blood pressure was measured by tail-cuff sphygmomanometer (Natume, Japan). Animals were placed on metabolic cages for urine collection at pre-specified time points. Urinary protein excretion was measured by the method of Lowry. Urinary sodium concentration was measured by ion-selective electrodes. At sacrifice, kidneys were harvested for histological analysis and measurement of Ang peptide concentration.
(§4) Upon harvesting, kidneys were cleared of blood by transcardiac perfusion of iced-cold phosphate buffered saline, excised and fixed in 4% paraformaldehyde, embedded in paraffin and processed for microscopic examination. Kidney sections (2-µm) were stained with hematoxylin-eosin (H&E), Jones silver and Periodic Acid Schiff (PAS). Slides were reviewed by an experienced renal pathologist (S.S) in a blinded fashion. Index of glomerulosclerosis was evaluated by a semiquantitative score based on the percentage of the glomerular tuft occupied by sclerotic lesions (0: no lesions, 1: lesions affecting less than 25% of the glomerulus, 2-3-4: lesions affecting 25–50%, 50–75% and 75–100% of the glomerulus, respectively). Tubular injury was rated based on presence of tubular atrophy, microcystic tubular dilation and interstitial fibrosis, from 0 to 3 (0: none; 1: mild; 2: moderate; 3: severe).
(§5) Blood pressure data were analyzed by repeated measures ANOVA. Differences within groups were analyzed using paired t-tests adjusted with Bonferroni modification. Differences between group means at each time point were tested using one-way ANOVA followed by Tukey-Kramer post-hoc test. Urinary protein excretions were log10 transformed and tested using a two-way ANOVA for repeated measures followed by Scheffe post hoc test for differences between the groups. Untransformed 24-hour urinary protein excretions at each time point were then tested using Kruskal-Wallis test. If a significant main effect was detected then differences between groups were tested using the Mann-Whitney U test with the probability adjusted using the Bonferroni modification. Urine sodium was also assessed by two-way ANOVA for repeated measures and pairwise multiple comparisons were made using the Holm-Sidak method. Multiple comparisons of Ang peptide levels were made using ANOVA when data were normally distributed and with log10 transformation when non-normally distributed. Post-hoc pairwise comparisons were made using the Holm-Sidak method. […] For Ang peptide measurements by LC/MS/MS, only values above the LLOQ were utilized for statistical comparisons.

Series [3] has the same test system. The series can be described thus: Model of FSGS, early disease protocol (blood pressure, proteinuria, histology, weights, urine). The class given is in vivo, rat. As for the experimental part: as §2, §3, §4, §5

Consider `CC[C@H](C)[C@H](NC(=O)[C@H](Cc1ccc(O)cc1)NC(=O)[C@@H](NC(=O)[C@H](CCCNC(=N)N)NC(=O)[C@@H](N)CC(=O)O)C(C)C)C(=O)N[C@@H](Cc1c[nH]cn1)C(=O)N1CCC[C@H]1C(=O)O` [Ang-(1-7)], for which the IC50 at AT1a receptor was determined as 3.79 µM; at human AT2 receptor it was 0.0609 µM. Also, the “intrarenal level of the exogenously administered peptide (in words)” value in series [1] (kidneys harvested at sacrifice, chronic iv infusion 100-400 ng/kg/min, whole kidney homogenate, LC-MS/MS (PRM)) is reported as “did not lead to a significant increase”.
As to `CC[C@H](C)[C@H](NC(=O)[C@H](Cc1ccc(O)cc1)NC(=O)[C@@H](NC(=O)[C@H](CCCNC(=N)N)NC(=O)[C@@H](N)CC(=O)O)C(C)C)C(=O)N[C@@H](Cc1cnc[nH]1)C(=O)N1CCC[C@H]1C(=O)N[C@@H](Cc1ccccc1)C(=O)O` [Ang-II, Angiotensin (Ang) II], in series [2] (Ang-II low-dose 100 ng/kg/min iv, time mark = 6 weeks of treatment), the “survival (in words)” value was “no rats in this group survived beyond that time mark”.
In the case of `C[C@H](CS)C(=O)N1CCC[C@H]1C(=O)O` [Captopril, captopril], the “degree of glomerulosclerosis (semiquantitative score 0-4)” value in series [3] (after 8 weeks, Ang-II 100 ng/kg/min iv, captopril 100 mg/kg/d, mean ± SEM, vehicle 0.4±0.1, SEM) was 0.1±0.1; in series [2] (week 30, after 12 weeks) it was 0.88±0.2. Moreover, the “tubular injury score (0-3)” value in series [3] (after 8 weeks, Ang-II 100 ng/kg/min iv, captopril 100 mg/kg/d, mean ± SEM, vehicle 0.8±0.2) is given as “non-significant reduction”; in series [2] (week 30, after 12 weeks, captopril 100 mg/kg/d orally, printed as captopril vs. vehicle, p<0.05) it was 2.6±0.4. Also, the “urinary protein excretion (proteinuria), median (range), after 4 weeks” value in series [3] (captopril 100 mg/kg/d, Lowry method, n=5, vehicle 89 (31–188), p=0.014 vs vehicle) is recorded as 14 (13–17) mg/day. Moreover, the “urinary protein excretion (proteinuria), median (range), after 8 weeks” value in series [3] (captopril 100 mg/kg/d, Lowry method, n=5, vehicle 243 (91–402), p=0.014 vs vehicle) is recorded as 30 (25–33) mg/day. In series [3] (tail-cuff, captopril 100 mg/kg/d in drinking water, n=5, mean ± SEM, vehicle 161±4, SEM), the “systolic blood pressure after 4 weeks of therapy” value came out at 117±5 mmHg. Besides, the “systolic blood pressure after 8 weeks of therapy” value in series [3] (tail-cuff, captopril 100 mg/kg/d in drinking water, n=5, mean ± SEM, vehicle 162±4, SEM) is on record as 134±3 mmHg. In series [2] (captopril 100 mg/kg/d orally, vehicle +342±289, p=0.012), the “progression of the degree of proteinuria between weeks 18 and 24” value is -225 ± 453 mg/day. In series [2], the “systolic blood pressure at 6 weeks of treatment” value came out at 156±7 mmHg. The “systolic blood pressure after 12 weeks of treatment” value in series [2] was determined as 145±5 mmHg. For the same compound, the “kidney Ang-II levels compared with vehicle (in words)” value in series [1] (after 12 weeks, captopril 100 mg/kg/d, Mann-Whitney U test p=0.002, n=5/group) is listed as “lower”.
Turning to `CCCCc1nc(Cl)c(CO)n1Cc1ccc(-c2ccccc2-c2nn[nH]n2)cc1` [Losartan, losartan], in series [2], the “systolic blood pressure at 6 weeks of treatment” value was 155±5 mmHg and the “systolic blood pressure after 12 weeks of treatment” value turned out to be 146±5 mmHg. Further, in series [2] (week 30, after 12 weeks), the “degree of glomerulosclerosis (semiquantitative score 0-4)” value is on record as 1.28±0.7.

One may read the IC50 as the midpoint of a concentration-inhibition curve. Read a high IC50 as lower potency.

The values are drawn from article PMC4206519, “Lack of Renoprotective Effect of Chronic Intravenous Angiotensin-(1-7) or Angiotensin-(2-10) in a Rat Model of Focal Segmental Glomerulosclerosis” (PLoS ONE, 2014).
